Laboratory results from US20200024278A1, “COMPOSITION COMPRISING ANTIBIOTIC COMPOUND AND AN HETEROCYCLIC COMPOUND AND THEIR USE IN PREVENTING OR TREATING BACTERIAL INFECTIONS” (MUTABILIS, priority 2016, published 2020).
Read-outs that look alike come from different tables or passages of the source.

Experiments:
Assay in all cases: MIC, broth microdilution (CLSI), substance alone or ATB combined with compound at 4 or 8 μg/mL
[1] = test system: SPN 49619; format: cell-based, S. pneumoniae; settings: SPN 49619; for MIC ATB combined with compound: compound @8 μg/ml
Method in brief: (§1)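 CLSI M7-A7 broth microdilution. ca-MHB, 5·10^5 CFU/mL log-phase cells, 16-20 h, 35° C, ambient air. Fosfomycin wells + 25 μg/ml glucose-6-phosphate. Visual MIC read.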

[2] = test system: ECO 190317; format: cell-based, E. coli; settings: ECO 190317; for MIC ATB combined with compound: compound @8 μg/ml
Method in brief: as §1

[3] = test system: ECO UFR39; format: cell-based, E. coli; settings: ECO UFR39; for MIC ATB combined with compound: compound @8 μg/ml
Method in brief: as §1

[4] = test system: PAE UFR90; format: cell-based, P. aeruginosa; settings: PAE UFR90; for MIC ATB combined with compound: compound @8 μg/ml
Method in brief: as §1

[5] = test system: PAE 105250; format: cell-based, P. aeruginosa; settings: PAE 105250; for MIC ATB combined with compound: compound @8 μg/ml
Method in brief: as §1

[6] = test system: PAE UFR48; format: cell-based, P. aeruginosa; settings: PAE UFR48; for MIC ATB combined with compound: compound @8 μg/ml
Method in brief: as §1

[7] = test system: ECL P99; format: cell-based, E. cloacae; settings: ECL P99; for MIC ATB combined with compound: compound @8 μg/ml
Method in brief: as §1

[8] = test system: ABA UFR161; format: cell-based, A. baumannii
Method in brief: as §1

[9] = test system: ABA 19606; format: cell-based, A. baumannii
Method in brief: as §1

[10] = test system: KPN 6299; format: cell-based, K. pneumoniae; settings: for MIC ATB combined with compound: compound @8 μg/ml
Method in brief: as §1

[11] = test system: KPN BAA-1898; format: cell-based, K. pneumoniae; settings: KPN BAA-1898; for MIC ATB combined with compound: compound @8 μg/ml
Method in brief: as §1

[12] = test system: KPN UFR42; format: cell-based, K. pneumoniae; settings: KPN UFR42; for MIC ATB combined with compound: compound @8 μg/ml
Method in brief: as §1

[13] = test system: SAU 29213; format: cell-based, S. aureus; settings: for MIC ATB combined with compound: compound @8 μg/ml
Method in brief: as §1

[14] = Escherichia coli, antibiotic alone, read-out: MIC ATB alone
[15] = Pseudomonas aeruginosa, antibiotic alone, read-out: MIC ATB alone
[16] = Pseudomonas aeruginosa, substance alone, read-out: MIC
[17] = Acinetobacter baumannii, antibiotic alone, read-out: MIC ATB alone
[18] = Klebsiella pneumoniae, antibiotic alone, read-out: MIC ATB alone

CO/N=C(\C(=O)N[C@@H]1C(=O)N2C(C(=O)[O-])=C(C[N+]3(C)CCCC3)CS[C@H]12)c1csc(N)n1 [FEP, Cefepime]
MIC ([1]; Streptococcus pneumoniae, antibiotic alone, read-out: MIC ATB alone): 0.063 µg/mL | MIC ([1]; Streptococcus pneumoniae, substance alone, read-out: MIC): 0.063 µg/mL | MIC [2, 14]: 512 µg/mL | MIC [3, 14]: > 128 µg/mL | MIC [4, 15]: 16 µg/mL | MIC [4, 16]: 16 µg/mL | MIC [5, 15]: 8 µg/mL | MIC [5, 16]: 8 µg/mL | MIC [6, 15]: 64 µg/mL | MIC [6, 16]: 64 µg/mL | MIC ([7]; Enterobacter cloacae, antibiotic alone, read-out: MIC ATB alone): 2 µg/mL | MIC ([7]; Enterobacter cloacae, substance alone, read-out: MIC): 2 µg/mL | MIC [8, 17]: > 128 µg/mL | MIC ATB combined with Example 1 @8 μg/ml ([8]; with Example 1 @8 μg/ml): >128 µg/mL | MIC ATB combined with Example 3 @8 μg/ml ([8]; with Example 3 @8 μg/ml): >128 µg/mL | MIC ATB combined with Example 6 @8 μg/ml ([8]; with Example 6 @8 μg/ml): >128 µg/mL | MIC ATB combined with Example 9 @4 μg/ml ([8]; with Example 9 @4 μg/ml): >128 µg/mL | MIC ATB combined with Example 10 @8 μg/ml ([8]; with Example 10 @8 μg/ml): >128 µg/mL | MIC ATB combined with Example 11 @8 μg/ml ([8]; with Example 11 @8 μg/ml): >128 µg/mL | MIC ATB combined with Example 12 @8 μg/ml ([8]; with Example 12 @8 μg/ml): >128 µg/mL | MIC ATB combined with Example 15 @4 μg/ml ([8]; with Example 15 @4 μg/ml): >128 µg/mL | MIC [9, 17]: 16 µg/mL | MIC ATB combined with Example 1 @8 μg/ml ([9]; with Example 1 @8 μg/ml): 32 µg/mL | MIC ATB combined with Example 3 @8 μg/ml ([9]; with Example 3 @8 μg/ml): 8 µg/mL | MIC ATB combined with Example 6 @8 μg/ml ([9]; with Example 6 @8 μg/ml): <=0.25 μg/mL | MIC ATB combined with Example 9 @4 μg/ml ([9]; with Example 9 @4 μg/ml): 16 µg/mL | MIC ATB combined with Example 10 @8 μg/ml ([9]; with Example 10 @8 μg/ml): 8 µg/mL | MIC ATB combined with Example 11 @8 μg/ml ([9]; with Example 11 @8 μg/ml): 16 µg/mL | MIC ATB combined with Example 12 @8 μg/ml ([9]; with Example 12 @8 μg/ml): 8 µg/mL | MIC ATB combined with Example 15 @4 μg/ml ([9]; with Example 15 @4 μg/ml): 16 µg/mL | MIC [10, 18]: 128 µg/mL | MIC ([11]; Klebsiella pneumoniae, BAA1898, antibiotic alone, read-out: MIC ATB alone): 64 µg/mL | MIC ([11]; Klebsiella pneumoniae, BAA1898, substance alone, read-out: MIC): 64 µg/mL | MIC [12, 18]: 128 µg/mL | MIC ([13]; Staphylococcus aureus, antibiotic alone, SAU 29213, read-out: MIC ATB alone): 4 µg/mL | MIC ([13]; Staphylococcus aureus, substance alone, SAU 29213 (MSSA 29213), read-out: MIC): 4 µg/mL

O=C(O)C(F)(F)F.O=C1N2C[C@H](c3scnc3[C@H]2c2ncc[nH]2)N1OS(=O)(=O)[O-].[Na+] (relative stereo) [Example 6, sodium and 2,2,2-trifluoroacetate [trans-7-(1H-imidazol-3-ium--2-yl)-9-oxo-3-thia-5,8,10-triaza-tricyclo[6.2.1.0^2,6]undeca-2(6),4-dien-10-yl]sulfate]
MIC ATB combined with compound ([1]; ATB ATM): <0.031 µg/mL | MIC ATB combined with compound ([1]; ATB FEP): <0.031 µg/mL | MIC ATB combined with compound ([1]; ATB FOS): <0.125 µg/mL | MIC ATB combined with compound ([1]; ATB MEM): <0.031 µg/mL | MIC ATB combined with compound ([1]; ATB PIP): <0.031 µg/mL | MIC ([1]; substance alone): 16 µg/mL | MIC ATB combined with compound ([2]; ATB ATM): <0.031 µg/mL | MIC ATB combined with compound ([2]; ATB FEP): <0.031 µg/mL | MIC ATB combined with compound ([2]; ATB FOS): <0.125 µg/mL | MIC ATB combined with compound ([2]; ATB MEM): <0.031 µg/mL | MIC ATB combined with compound ([2]; ATB PIP): <0.031 µg/mL | MIC ([2]; substance alone): 1 µg/mL | MIC ATB combined with compound ([3]; ATB ATM): <0.031 µg/mL | MIC ATB combined with compound ([3]; ATB FEP): <0.031 µg/mL | MIC ATB combined with compound ([3]; ATB FOS): <0.125 µg/mL | MIC ATB combined with compound ([3]; ATB MEM): <0.031 µg/mL | MIC ATB combined with compound ([3]; ATB PIP): <0.031 µg/mL | MIC ([3]; substance alone): 2 µg/mL | MIC ATB combined with compound ([4]; ATB ATM): 8 µg/mL | MIC ATB combined with compound ([4]; ATB FEP): 4 µg/mL | MIC ATB combined with compound ([4]; ATB FOS): 8 µg/mL | MIC ATB combined with compound ([4]; ATB MEM): 1 µg/mL | MIC ATB combined with compound ([4]; ATB PIP): >32 µg/mL | MIC ([4]; substance alone): >32 µg/mL | MIC ATB combined with compound ([5]; ATB ATM): 4 µg/mL | MIC ATB combined with compound ([5]; ATB FEP): 8 µg/mL | MIC ATB combined with compound ([5]; ATB FOS): 128 µg/mL | MIC ATB combined with compound ([5]; ATB MEM): 2 µg/mL | MIC ATB combined with compound ([5]; ATB PIP): >32 µg/mL | MIC ([5]; substance alone): >32 µg/mL | MIC ATB combined with compound ([6]; ATB ATM): 8 µg/mL | MIC ATB combined with compound ([6]; ATB FEP): 32 µg/mL | MIC ATB combined with compound ([6]; ATB FOS): 32 µg/mL | MIC ATB combined with compound ([6]; ATB MEM): 4 µg/mL | MIC ATB combined with compound ([6]; ATB PIP): >32 µg/mL | MIC ([6]; substance alone): >32 µg/mL | MIC ATB combined with compound ([7]; ATB ATM): <0.031 µg/mL | MIC ATB combined with compound ([7]; ATB FEP): <0.031 µg/mL | MIC ATB combined with compound ([7]; ATB FOS): <0.125 µg/mL | MIC ATB combined with compound ([7]; ATB MEM): <0.031 µg/mL | MIC ATB combined with compound ([7]; ATB PIP): <0.031 µg/mL | MIC ([7]; substance alone): 4 µg/mL | MIC ([8]; substance alone): 32 µg/mL | MIC ([9]; substance alone): 16 µg/mL | MIC ATB combined with compound ([10]; ATB ATM): <0.031 µg/mL | MIC ATB combined with compound ([10]; ATB FEP): <0.031 µg/mL | MIC ATB combined with compound ([10]; ATB FOS): 0.25 µg/mL | MIC ATB combined with compound ([10]; ATB MEM): <0.031 µg/mL | MIC ATB combined with compound ([10]; ATB PIP): <0.031 µg/mL | MIC ATB combined with compound ([11]; ATB ATM): <0.031 µg/mL | MIC ATB combined with compound ([11]; ATB FEP): <0.031 µg/mL | MIC ATB combined with compound ([11]; ATB FOS): <=0.125 μg/mL | MIC ATB combined with compound ([11]; ATB MEM): <0.031 µg/mL | MIC ATB combined with compound ([11]; ATB PIP): <0.031 µg/mL | MIC ([11]; substance alone): 4 µg/mL | MIC ATB combined with compound ([12]; ATB ATM): <0.031 µg/mL | MIC ATB combined with compound ([12]; ATB FEP): <0.031 µg/mL | MIC ATB combined with compound ([12]; ATB FOS): <0.125 µg/mL | MIC ATB combined with compound ([12]; ATB MEM): <0.031 µg/mL | MIC ATB combined with compound ([12]; ATB PIP): <=0.031 μg/mL | MIC ([12]; substance alone): 4 µg/mL | MIC ATB combined with compound ([13]; ATB ATM, SAU 29213): >32 µg/mL | MIC ATB combined with compound ([13]; ATB FEP, SAU 29213): <=0.031 μg/mL | MIC ATB combined with compound ([13]; ATB FOS, SAU 29213): <=0.125 μg/mL | MIC ATB combined with compound ([13]; ATB MEM, SAU 29213): <=0.031 μg/mL | MIC ATB combined with compound ([13]; ATB PIP, SAU 29213): 0.063 µg/mL | MIC ([13]; substance alone, SAU 29213 (MSSA 29213)): >32 µg/mL
